Measured values: paper PMC5457628, “Inhibitors of ubiquitin E3 ligase as potential new antimalarial drug leads” (BMC Pharmacology & Toxicology, 2017)
Where two headings read alike, the source gives them in different places.

Legend:
[1] = tested on: P. falciparum D6 strain (PfD6); experiment: Stage specific imaging analysis: parasitemia and differential stage counts in synchronized PfD6 culture (Giemsa smears); format: cell-based, Plasmodium falciparum; conditions: CQ 50 nM; for effect on parasitemia as compared to vehicle control: HLI 373 5 μM, Nutlin 3 35 μM; for overall parasitemia: synchronized PfD6, ~6% parasitemia at 0 h, JNJ 26854165 5 μM
Experimental: The stage-specific activity of the lead compounds was tested against Pf D6. […] The culture was synchronized by 5% sorbitol treatment as previously described. The synchronized culture of PfD6, with ~6% parasitemia and >90% of the parasite in ring stage, was used for these assays. Stock solutions (10 mM) of the test inhibitors were prepared in DMSO. […] The effect of the compounds was monitored after every 8 h (0, 8, 16, 24, 32, 40 and 48 h) by preparing thin smears of the infected erythrocytes. The slides were stained with Giemsa, and digital images of the parasite were captured with Nikon Eclipse microscope under bright field using NIS-element imaging software. The images were analyzed for the parasite stages and morphological changes (if any) in the parasite. The levels of parasitemia and differential parasitemia (relative percentage of different parasite stages) counts were also measured. At least one thousand erythrocytes (total- infected & uninfected) were counted from each slide for determination of the level of parasitemia and differential parasite stage counts.

[2] = tested on: P. falciparum D6 (CQ-sensitive strain); experiment: Antimalarial SYBR Green I-based fluorescence assay, PfD6; format: cell-based
Experimental: The medium of the culture was replaced every 48 h, flushed with a gas mixture of 90% N2, 5% CO2 and 5% O2 and incubated at 37 °C.
Only ring stages of the parasite were counted and adjusted to 2% parasitemia with 2% hematocrit. Stock solutions (10 mM) of the test inhibitors were prepared in DMSO. […] The maximum concentrations of E3 ligase inhibitors and CQ used in the assay were 50 μM and 500 nM respectively. The plates were incubated at 37 °C in 5% CO2, 5% O2, and 90% N2 environment for 48, 72, 96 and 120 h. After incubation, SYBR green with RBC lysis buffer was added to each well, and the plates were incubated for 1 h in the dark at room temperature. The standard antimalarial agent, CQ was tested as the positive control, and DMSO was tested as vehicle control. […] The anti-malarial activity (expressed as IC50 values) was determined by the dose-response analysis with XLfit©.

[3] = In vitro cytotoxicity assay (AlamarBlue) against PMA-transformed THP1 cells; format: cell-based; conditions: human, PMA-transformed non-dividing THP1, mean ± SEM of duplicates, NC = not cytotoxic at highest concentration tested (50 μM inhibitors, 500 nM CQ), read-out: THP1 Cell Cytotoxicity (IC50)
Experimental: The E3 ligase inhibitors were also tested against Vero cells (African green monkey kidney epithelial cells) and transformed non-dividing human monocytic (THP1) cells. The methods described earlier were used to measure cytotoxicity for Vero and THP1 cells. In brief, four days’ old Vero and THP1 cell cultures were diluted with RPMI medium to 25,000 cells/mL. Vero cells (100 μL per well) were seeded in a clear 96 well culture plate and incubated for 24 h at 37 °C in a 5% CO2 incubator to obtain confluent cells. Phorbol 12-myristate 13-acetate (PMA) (25 ng/mL) was added to THP1 cell culture to transform the cells to adherent macrophages. PMA treated THP1cells were dispensed into clear 96 well culture plates (200 μL/well; 25,000 cells/mL) and incubated at 37 °C in a 5% CO2 incubator for overnight. The test compounds were prepared in DMSO at 10 mM concentration. The compounds were serially diluted in RPMI medium with 2% FBS in the separate daughter plates, for testing at eight concentrations. The cells were washed with culture medium, replaced with the fresh medium and test compounds were added. The maximum concentration of E3 ligase inhibitors and CQ used in these assays were 50 μM and 500 nM respectively. DMSO was tested as vehicle control in these assays. The plates were incubated further in a CO2 incubator at 37 °C for 48 h. After 48 h, 10 μL of AlamarBlue® was added to each well, and the plates were incubated in a CO2 incubator at 37 °C for overnight. […] IC50 values were computed by analyzing dose-response curves with XLfit©.

[4] = tested on: P. falciparum W2 (CQ-resistant strain); experiment: Antimalarial SYBR Green I-based fluorescence assay, PfW2; format: cell-based; conditions: Plasmodium falciparum
Experimental: CQ-sensitive (D6, Sierra Leone) and -resistant (W2, Indochina) strains of P. falciparum cultures were obtained from Malaria Research and Reference Reagent Resource Center (MR4), USA and maintained at 5% hematocrit in complete culture medium (RPMI 1640 supplemented with 60 μg/mL amikacin, 27 mM NaHCO3 and 10% heat-inactivated normal human type A+ serum). The medium of the culture was replaced every 48 h, flushed with a gas mixture of 90% N2, 5% CO2 and 5% O2 and incubated at 37 °C.
CQ-sensitive P. falciparum D6 strain (Pf D6) and CQ-resistant P. falciparum W2 strain (Pf W2) were grown in RPMI 1640 medium supplemented with amikacin (60 μg/mL), NaHCO3 (27 mM) and 10% heat-inactivated normal human type A+ serum. Only ring stages of the parasite were counted and adjusted to 2% parasitemia with 2% hematocrit. Stock solutions (10 mM) of the test inhibitors were prepared in DMSO. The compounds were serially diluted in serum-free RPMI-1640 medium for testing at eight concentrations. The maximum concentrations of E3 ligase inhibitors and CQ used in the assay were 50 μM and 500 nM respectively. The plates were incubated at 37 °C in 5% CO2, 5% O2, and 90% N2 environment for 48, 72, 96 and 120 h. After incubation, SYBR green with RBC lysis buffer was added to each well, and the plates were incubated for 1 h in the dark at room temperature. The standard antimalarial agent, CQ was tested as the positive control, and DMSO was tested as vehicle control. Standard fluorescence was measured Fluostar Galaxy microplate reader (BMG Lab Technologies) at excitation wavelength of 485 nm and emission wavelength of 535 nm. The anti-malarial activity (expressed as IC50 values) was determined by the dose-response analysis with XLfit©.

MDM2 = conditions: read-out: Ki, MDM 2 inhibitor; cited from earlier work
[5] = In vitro cytotoxicity assay (AlamarBlue) against Vero cells; format: cell-based; conditions: African green monkey, Vero cells (kidney epithelial cells), mean ± SEM of duplicates, NC = not cytotoxic at highest concentration tested (50 μM inhibitors, 500 nM CQ), read-out: Vero Cell Cytotoxicity (IC50)
Experimental: The E3 ligase inhibitors were also tested against Vero cells (African green monkey kidney epithelial cells) and transformed non-dividing human monocytic (THP1) cells. The methods described earlier were used to measure cytotoxicity for Vero and THP1 cells. In brief, four days’ old Vero and THP1 cell cultures were diluted with RPMI medium to 25,000 cells/mL. Vero cells (100 μL per well) were seeded in a clear 96 well culture plate and incubated for 24 h at 37 °C in a 5% CO2 incubator to obtain confluent cells. Phorbol 12-myristate 13-acetate (PMA) (25 ng/mL) was added to THP1 cell culture to transform the cells to adherent macrophages. PMA treated THP1cells were dispensed into clear 96 well culture plates (200 μL/well; 25,000 cells/mL) and incubated at 37 °C in a 5% CO2 incubator for overnight. The test compounds were prepared in DMSO at 10 mM concentration. The compounds were serially diluted in RPMI medium with 2% FBS in the separate daughter plates, for testing at eight concentrations. The cells were washed with culture medium, replaced with the fresh medium and test compounds were added. The maximum concentration of E3 ligase inhibitors and CQ used in these assays were 50 μM and 500 nM respectively. DMSO was tested as vehicle control in these assays. The plates were incubated further in a CO2 incubator at 37 °C for 48 h. […]

[6] = Plasmodium falciparum, D6, 48 h; read-out: IC90 against PfD6 (concentration almost equivalent to IC90)
[7] = Plasmodium falciparum, D6; 48 h incubation; mean ± SEM of duplicates; NA = not active at highest concentration tested (50 μM inhibitors, 500 nM CQ); read-out: P. falciparum D6 (CQ-sensitive strain) IC50
[8] = Plasmodium falciparum, D6; 72 h incubation; mean ± SEM of duplicates; NA = not active at highest concentration tested (50 μM inhibitors, 500 nM CQ); read-out: P. falciparum D6 (CQ-sensitive strain) IC50
[9] = Plasmodium falciparum, D6; 96 h incubation; mean ± SEM of duplicates; NA = not active at highest concentration tested (50 μM inhibitors, 500 nM CQ); read-out: P. falciparum D6 (CQ-sensitive strain) IC50
[10] = Plasmodium falciparum, D6; 120 h incubation; mean ± SEM of duplicates; NA = not active at highest concentration tested (50 μM inhibitors, 500 nM CQ); read-out: P. falciparum D6 (CQ-sensitive strain) IC50
[11] = W2, 48 h incubation, mean ± SEM of duplicates, NA = not active at highest concentration tested (50 μM inhibitors, 500 nM CQ), read-out: P. falciparum W2 (CQ-resistant strain) IC50
[12] = W2, 72 h incubation, mean ± SEM of duplicates, NA = not active at highest concentration tested (50 μM inhibitors, 500 nM CQ), read-out: P. falciparum W2 (CQ-resistant strain) IC50
[13] = W2, 96 h incubation, mean ± SEM of duplicates, NA = not active at highest concentration tested (50 μM inhibitors, 500 nM CQ), read-out: P. falciparum W2 (CQ-resistant strain) IC50
[14] = W2, 120 h incubation, mean ± SEM of duplicates, NA = not active at highest concentration tested (50 μM inhibitors, 500 nM CQ), read-out: P. falciparum W2 (CQ-resistant strain) IC50
[15] = 40 h post-treatment, vehicle control 6.90
[16] = 48 h post-treatment, vehicle control 5.28%
[17] = Plasmodium falciparum, D6; 48-120 h; read-out: IC50 against PfD6
[18] = W2, 48-120 h, read-out: IC50 against PfW2

Row | IC90 [2, 6] [µM] | IC50 [2, 7] [µM] | IC50 [2, 8] [µM] | IC50 [2, 9] [µM] | IC50 [2, 10] [µM] | IC50 [4, 11] [µM] | IC50 [4, 12] [µM] | IC50 [4, 13] [µM] | IC50 [4, 14] [µM] | IC50 [2, 17] [µM] | IC50 [4, 18] [µM] | SMILES | effect on parasitemia as compared to vehicle control ([1]; 40 h post-treatment) | IC50 at 48 h [3] [µM] | overall parasitemia [1, 15] [%] | overall parasitemia [1, 16] [%] | IC50 at 48 h [5] [µM] | also measured
1 | – | 32.2 ± 4.57 | 37 ± 1.8 | – | – | 28.7 ± 4.01 | 39 ± 2.71 | – | – | – | – | Cc1ccc2ccc(C(Nc3ccccc3)c3ccccc3)c(O)c2n1 (centres unmarked) [NSC 66811] | – | 37.8 ± 4.1 | – | – | – | Ki (MDM2): 0.12 µM
2 | – | 5.24 ± 0.2 | 4.8 ± 0.05 | 3.09 ± 0.08 | 2.52 ± 0.39 | 2.07 ± 0.22 | 2.63 ± 0.05 | 2.91 ± 0.03 | 3.23 ± 0.03 | < 6 | < 6 | CCc1c2ccccc2c(CSC(=N)N)c2ccccc12 [NSC 146109] | – | 1.2 ± 0.28 | – | – | 5.27 ± 0.05 | –
3 | – | 12.1 ± 0.68 | 49 ± 0.94 | – | – | 20.6 ± 5.19 | 23.7 ± 3.53 | 45.8 ± 0.09 | 48.6 ± 0.49 | – | – | O=C1c2ccccc2-c2nc3nonc3nc21 [SMER 3] | – | 5.8 ± 0.28 | – | – | 16 ± 0.55 | –

Second part, the compound before the results:

Row | SMILES | IC90 [2, 6] [µM] | IC50 [2, 7] [µM] | IC50 [2, 8] [µM] | IC50 [2, 9] [µM] | IC50 [2, 10] [µM] | IC50 [4, 11] [µM] | IC50 [4, 12] [µM] | IC50 [4, 13] [µM] | IC50 [4, 14] [µM] | IC50 [2, 17] [µM] | IC50 [4, 18] [µM] | effect on parasitemia as compared to vehicle control ([1]; 40 h post-treatment) | IC50 at 48 h [3] [µM] | overall parasitemia [1, 15] [%] | overall parasitemia [1, 16] [%] | IC50 at 48 h [5] [µM] | also measured
4 | COc1ccc(C2=N[C@@H](c3ccc(Cl)cc3)[C@@H](c3ccc(Cl)cc3)N2C(=O)N2CCNC(=O)C2)c(OC(C)C)c1 (racemic) [Nutlin 3] | ~35 | 12.8 ± 1.34 | 19.4 ± 0.34 | 15.9 ± 1.24 | 20 ± 4.52 | 18.6 ± 1.6 | 15.72 ± 0.04 | 15.4 ± 0.54 | 15.6 ± 2.17 | – | – | significantly reduced | 35.2 ± 2.76 | – | – | – | –
5 | CCN(CC)CCCC(C)Nc1ccnc2cc(Cl)ccc12 (centres unmarked) [Chloroquine] | – | – | – | – | – | – | – | – | – | – | – | significantly decreased the overall parasitemia | – | 2.40 | 1.92 | – | parasites arrested at ring stage ([1]; 40 and 48 h post-treatment): more than 50%; parasites arrested at ring stage ([1]; 16 h post-treatment): around 50%; IC90 ([2]; Plasmodium falciparum, D6, 48 h, read-out: IC90 against PfD6 (concentration almost equivalent to IC90)): ~0.05 µM; IC50 ([2]; Plasmodium falciparum, D6, 48 h, read-out: P. falciparum D6 (CQ-sensitive strain) IC50): 0.03 ± 0.001 µM; IC50 ([2]; Plasmodium falciparum, D6, 72 h, read-out: P. falciparum D6 (CQ-sensitive strain) IC50): 0.02 ± 0.004 µM; IC50 ([2]; Plasmodium falciparum, D6, 96 h, read-out: P. falciparum D6 (CQ-sensitive strain) IC50): 0.02 ± 0.001 µM; IC50 ([2]; Plasmodium falciparum, D6, 120 h, read-out: P. falciparum D6 (CQ-sensitive strain) IC50): 0.02 ± 0.001 µM; IC50 ([4]; W2, 48 h, read-out: P. falciparum W2 (CQ-resistant strain) IC50): 0.19 ± 0.004 µM; IC50 ([4]; W2, 72 h, read-out: P. falciparum W2 (CQ-resistant strain) IC50): 0.19 ± 0.007 µM; IC50 ([4]; W2, 96 h, read-out: P. falciparum W2 (CQ-resistant strain) IC50): 0.2 ± 0.001 µM; IC50 ([4]; W2, 120 h, read-out: P. falciparum W2 (CQ-resistant strain) IC50): 0.19 ± 0.002 µM
6 | c1ccc2c(CCNc3ccc(Nc4ccncc4)cc3)c[nH]c2c1 [JNJ 26854165, Serdemetan] | ~5 | 2.17 ± 0.004 | 2.93 ± 0.03 | 1.41 ± 0.03 | 1.46 ± 0.12 | 1.86 ± 0.03 | 1.74 ± 0.27 | 2.28 ± 0.03 | 2.02 ± 0.36 | < 6 | < 6 | – | 22.4 ± 0.56 | 1.90 | 1.76 | – | –
